These results are taken from PubChem BioAssay (NCI).

Test systems include SK-OV-3 ovarian; HOP-62 NSCLC; CCRF-CEM leukemia; HL-60(TB) leukemia; HT29 colon; SW-620 colon; K-562 leukemia; SNB-75 CNS; SR leukemia; HCT-116 colon.
Holding throughout (assay): inhibition of tumour cell growth, NCI panel, 48 h

Values joined by “and” are separate entries in the source; they are usually repeats but may differ in a detail not shown here. Equal values may be shown once.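 Tested at 5 concentrations; 48 h exposure; 96-well plates; endpoints linearly interpolated, else capped at highest concentration. Abbreviation: GI50, concentration required for 50% inhibition of growth. TGI: concentration producing complete growth inhibition.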

For the compound `CCCCCCCCCCCCCC(=O)NO`, the TGI in the experiment on SK-OV-3 ovarian came to 73.5 µM; with HOP-62 NSCLC, 34.6 µM; in the experiment on CCRF-CEM leukemia, 6.46 µM; in the experiment with HL-60(TB) leukemia, 23.7 µM; with HT29 colon, 25.3 µM; in the experiment on SW-620 colon, 82.6 µM. Also, the TGI with K-562 leukemia was 34.8 µM; with SNB-75 CNS, 40 µM; in the experiment on SR leukemia, > 100 µM; in the experiment with HCT-116 colon, > 94.9 µM.
As for `CCN(CC)CCOc1ccc(NC(=O)C(C(C)C)N2C(=O)/C(=C/c3ccc(Br)cc3)SC2=S)cc1` (centres undefined), the GI50 with SK-OV-3 ovarian is 15.9 µM; in the experiment on HOP-62 NSCLC, 2.36 µM; with CCRF-CEM leukemia, 2.82 µM; in the experiment with HL-60(TB) leukemia, 4.96 µM; in the experiment on HT29 colon it was 2.88 µM; with SW-620 colon, 1.97 µM. Besides, the GI50 in the experiment on K-562 leukemia is 2.24 µM; with SNB-75 CNS, 7.82 µM; in the experiment on SR leukemia, 2.16 µM; in the experiment on HCT-116 colon, 1.86 µM. In addition, the TGI in the experiment on SK-OV-3 ovarian came to 31.7 µM; with HOP-62 NSCLC, 7.11 µM; in the experiment on CCRF-CEM leukemia it was 9.52 µM; with HL-60(TB) leukemia, 20.8 µM; in the experiment on HT29 colon it was 8.51 µM; in the experiment with SW-620 colon, 4.02 µM. For the same compound, the TGI in the experiment on K-562 leukemia worked out at 5.86 µM; in the experiment on SNB-75 CNS, 21.1 µM; with SR leukemia, 6.43 µM; in the experiment with HCT-116 colon, 3.47 µM.
In the case of `COc1ccc2c(c1)C(=O)/C(=C/c1cccc(OCC(=O)c3ccc([N+](=O)[O-])cc3)c1)CO2`, the GI50 is 10.5 µM in the experiment on SK-OV-3 ovarian; 2.13 µM with HOP-62 NSCLC; 2.32 µM in the experiment with CCRF-CEM leukemia; 2.34 µM in the experiment on HL-60(TB) leukemia; 1.93 µM in the experiment on HT29 colon; 1.45 µM in the experiment with SW-620 colon. Further, the GI50 was 1.96 µM in the experiment on K-562 leukemia, 1.83 µM in the experiment with SNB-75 CNS, 1.15 µM in the experiment with SR leukemia and 1.33 µM with HCT-116 colon. The TGI with SK-OV-3 ovarian is 23 µM; in the experiment with HOP-62 NSCLC, 5.35 µM; in the experiment with HL-60(TB) leukemia, 12.8 µM; in the experiment with HT29 colon, 4.6 µM; in the experiment on SW-620 colon, 2.96 µM; in the experiment with K-562 leukemia it was > 22.4 µM. Also, the figures for the TGI in the experiment with SNB-75 CNS, with SR leukemia and in the experiment on HCT-116 colon were 8.09 µM, 12.9 µM and 2.67 µM, respectively.
For the compound `CN(C)c1ccc(/C=N/n2c(CCCCc3n[nH]c(=S)n3/N=C/c3ccc(N(C)C)cc3)n[nH]c2=S)cc1`, the GI50 with SK-OV-3 ovarian was > 100 µM; in the experiment on HOP-62 NSCLC, 66.8 µM; with CCRF-CEM leukemia, > 100 µM; in the experiment with HL-60(TB) leukemia, > 100 µM; with HT29 colon it was > 100 µM; with SW-620 colon it was > 100 µM. Further, the GI50 with K-562 leukemia is > 100 µM; in the experiment with SNB-75 CNS, 30.2 µM; in the experiment with SR leukemia, > 100 µM; in the experiment with HCT-116 colon it was > 100 µM. Moreover, the TGI in the experiment on SK-OV-3 ovarian, with HOP-62 NSCLC, in the experiment on CCRF-CEM leukemia, in the experiment with HL-60(TB) leukemia, in the experiment on HT29 colon and with SW-620 colon was > 100 µM throughout. Besides, the TGI with K-562 leukemia, in the experiment on SNB-75 CNS, with SR leukemia and with HCT-116 colon was > 100 µM throughout.
`CCN(CC)CCCNc1nccc2c(C)c3[nH]c4ccncc4c(=O)c3cc12`: the TGI was 16 µM with SK-OV-3 ovarian; 16.7 µM in the experiment on HOP-62 NSCLC; 8.44 µM with CCRF-CEM leukemia; 8.58 µM in the experiment with HL-60(TB) leukemia; 12.8 µM with HT29 colon; 16.1 µM in the experiment on SW-620 colon. Besides, the TGI in the experiment with K-562 leukemia turned out to be 13 µM; in the experiment on SNB-75 CNS it was 12.6 µM; with SR leukemia, 2.23 µM; in the experiment on HCT-116 colon, 2.03 µM.
Turning to `CN(CO)c1nc(N(C)CO)nc(N(C)CO)n1`, the GI50 is 59.1 µM in the experiment on SK-OV-3 ovarian; 42.6 µM in the experiment on HOP-62 NSCLC; 25.5 µM with CCRF-CEM leukemia; 26 µM in the experiment with HL-60(TB) leukemia; 26.3 µM with HT29 colon; 11.5 µM with SW-620 colon. The GI50 in the experiment on K-562 leukemia is 27.2 µM; with SNB-75 CNS, 16.4 µM; with SR leukemia it was 28.4 µM; with HCT-116 colon, 21.7 µM and 11.7 µM. Moreover, the TGI is > 82.1 µM and 54.2 µM in the experiment on SK-OV-3 ovarian; > 90.7 µM and 56.7 µM in the experiment with HOP-62 NSCLC; 73.6 µM in the experiment with CCRF-CEM leukemia; 75.1 µM and 16.5 µM with HL-60(TB) leukemia; 71.2 µM and 144 µM with HT29 colon; 43.6 µM and 70.6 µM with SW-620 colon. The TGI in the experiment on K-562 leukemia is 140 µM; in the experiment on SNB-75 CNS, 53.3 µM and 32 µM; with SR leukemia, > 77.1 µM and 1080 µM; with HCT-116 colon it was 53.2 µM and 47.3 µM.
Regarding `Cn1c2ccccc2c2c(=O)n(CCCC(=O)NCCc3cnc[nH]3)c3c(-c4ccccc4)nnn3c21`, the GI50 was 10.2 µM in the experiment with SK-OV-3 ovarian; 7.67 µM in the experiment with HOP-62 NSCLC; 1.51 µM with CCRF-CEM leukemia; 11.8 µM in the experiment with HL-60(TB) leukemia; 8.55 µM with HT29 colon; 13 µM with SW-620 colon. In addition, the GI50 was 8.9 µM in the experiment on K-562 leukemia, 10.4 µM with SNB-75 CNS, 4.03 µM with SR leukemia and 5.95 µM in the experiment on HCT-116 colon. In addition, the TGI with SK-OV-3 ovarian was 18.7 µM; in the experiment on HOP-62 NSCLC it was 16.9 µM; with CCRF-CEM leukemia, > 50 µM; in the experiment on HL-60(TB) leukemia it was 28.4 µM; in the experiment with HT29 colon, 17.9 µM; in the experiment on SW-620 colon it was 30.2 µM. The TGI is 27 µM in the experiment with K-562 leukemia, 18.6 µM in the experiment on SNB-75 CNS, > 50 µM with SR leukemia and 13.8 µM in the experiment with HCT-116 colon.
Turning to `N#Cc1ccc(O)c(C2=NCC(c3ccc(-c4ccccc4)cc3)O2)c1` (centres undefined), the GI50 in the experiment on SK-OV-3 ovarian was 0.664 µM; with HOP-62 NSCLC it was 0.41 µM; with CCRF-CEM leukemia, 0.264 µM; with HL-60(TB) leukemia, 0.416 µM; in the experiment with HT29 colon, 0.866 µM; with SW-620 colon it was 0.387 µM. Also, the GI50 with K-562 leukemia is 0.338 µM; with SNB-75 CNS, 0.625 µM; in the experiment with SR leukemia, 0.529 µM; in the experiment on HCT-116 colon it was 0.462 µM. Further, the TGI was 14.4 µM in the experiment on SK-OV-3 ovarian; 10.9 µM in the experiment with HOP-62 NSCLC; > 100 µM in the experiment with CCRF-CEM leukemia; 3.73 µM in the experiment with HL-60(TB) leukemia; 24.1 µM with HT29 colon; 31.2 µM in the experiment on SW-620 colon. Also, the TGI with K-562 leukemia was > 100 µM; with SNB-75 CNS, 14.4 µM; in the experiment with SR leukemia, > 100 µM; with HCT-116 colon, 15.2 µM.
